For data set [1], the system named is MCF-7 breast cancer cell line. In words: Antiproliferation study, MTT cell viability assay. In kind it is cell-based. The conditions noted are these: Homo sapiens. How it is done:
All assays were performed in triplicate for the determination of mean values reported. Compounds were assayed as the free bases isolated from reaction. The human breast tumour cell line MCF-7 was cultured in Eagles minimum essential medium in a […] atmosphere with 10% fetal bovine serum, 2 mM L-glutamine and 100 μg/mL penicillin/streptomycin. The medium was supplemented with 1% non-essential amino acids. MDA-MB-231 cells were maintained in Dulbecco's Modified Eagle's medium (DMEM), supplemented with 10% (v/v) Fetal bovine serum, 2 mM L-glutamine and 100 μg/mL penicillin/streptomycin (complete medium). Cells were trypsinised and seeded at a density of 2.5×10^4 cells/ml in a 96-well plate and incubated at 37° C., […] atmosphere for 24 h. […] Control wells contained the equivalent volume of the vehicle ethanol (1% v/v). The culture medium was then removed and the cells washed with 100 μL phosphate buffered saline (PBS) and 50 μL MTT added, to reach a final concentration of 1 mg/mL MTT added. Cells were incubated for 2 h in darkness at 37° C. At this point solubilization was begun through the addition of 200 μL DMSO and the cells maintained at room temperature in darkness for 20 min to ensure thorough colour diffusion before reading the absorbance. The absorbance value of control cells (no added compound) was set to 100% cell viability and from this graphs of absorbance versus cell density per well were prepared to assess cell viability and from these, graphs of percentage cell viability versus concentration of subject compound added were drawn.
Background: Tetrazolium dyes change colour on reduction, which living cells bring about.

The subject of data set [2] is normal mouse mammary epithelial cells. In words: Viability of normal mammary epithelial cells. The data set is classed as cell-based. The conditions noted are these: for Percent viability of normal mammary epithelial cells compared to control: 10 nM, 72 hr treatment; for effects on normal mammary epithelial cells: up to 10 μM. On the procedure: The maximum toxicity elicited by these drugs on normal cells at a concentration of 10 nM was only 8% (see Table 4).

The test system of data set [3] is human chronic myeloid leukaemia K562 cells. The data set can be described thus: MTT cell viability assay. The following applies: read-out: Inhibition of cell viability (IC50 value, nM) K562. The data set is classed as cell-based.
For data set [4], the system named is normal mouse mammary epithelial cells. In words: Viability of normal mammary epithelial cells. In kind it is cell-based. The following applies: 72 hr treatment.
In data set [5] the test system is human promyelocytic leukaemia HL-60 cells. In words: MTT cell viability assay. The data set is classed as cell-based. The conditions noted are these: read-out: Inhibition of cell viability (IC50 value, nM) HL-60.
Data set [6] concerns the target T1, p-glycoprotein (Homo sapiens, UniProt P08183).
T1 construct: HL-60-MDR (overexpress p-glycoprotein); endogenous in cells; host or cells: HL-60-MDR, A2780-ADR
The data set can be described thus: Anti-proliferative effects in multi-drug resistant cells, conclusion on efflux. In kind it is cell-based. The conditions noted are these: concluded from resistance factors.
Procedure: (§1) Three drug resistant cell lines and respective parental cell lines were assessed. […] Western blot analysis confirmed the overexpression of p-glycoprotein and BCRP in respective cell lines.
(§2) Cells were exposed to multiple concentrations of the indicated compound for 72 h. Cell viability was assessed using the Alamar blue assay and respective IC50 values were calculated. The resistance factor (RF) was calculated by dividing the IC50 of the resistant cell line/IC50 of the parental cell line.

Data set [7] deals with HL-60-MDR(PGP). The data set can be described thus: Alamar Blue cell viability assay. In kind it is cell-based, human. In general terms: The colour change of resazurin is a common sign of viable cells or microbes.
Procedure: as §1, §2
(§3) All cells were cultured in RPMI-1640 Glutamax medium supplemented with 10% FCS media, 100 units/ml penicillin and 100 μg/mIstreptomycin. Cells were maintained at 37° C. in 5% CO2 in a humidified incubator.
(§4) The reduction of Alamar Blue is proportional to the number of viable cells. Cells (200 μl) were plated in triplicate in a 96-well plates (K562, 100,000/ml; HL-60, 300,000/ml; A-2780 50,000/ml). A-2780 cells were plated 24 h prior to treatment. Suspension cells were plated in the log phase of growth and treated immediately. The cells were then treated with either medium alone, vehicle (1% ethanol v/v or 0.1% DMSO v/v) or with a range of concentrations of drug [0.001-10 μM]. After 72 h, Alamar Blue was added to each well (10% of final volume) and fluorescence was read using a 96-well fluorometer with excitation at 530 nm and emission of 590 nm. The blank solution consisted of medium and Alamar Blue and the blank solution was used to calibrate the spectrophotometer to zero absorbance. The relative cell viability (%) related to control wells and was calculated by [A]test/[A]control×100 where [A]test is the absorbance of the drug treated cells and [A]control the absorbance of the vehicle control treated cells. Dose response curves were plotted and IC50 values (concentration of drug resulting in 50% reduction in cell survival) were obtained using the commercial software package Prism (GraphPad Software, Inc., La Jolla, USA). Experiments were performed in triplicate on at least three separate occasions.
Data set [8] relates to A2780-parental. In words: Alamar Blue cell viability assay. The data set is classed as cell-based. The following applies: 72 h.
Procedure: as §2
(§5) A2780-parental and A2780-ADR resistant cells were provided by the Beatson Institute of Cancer Research, Glasgow. […] All cells were cultured in RPMI-1640 Glutamax medium supplemented with 10% FCS media, 100 units/ml penicillin and 100 μg/mIstreptomycin. Cells were maintained at 37° C. in 5% CO2 in a humidified incubator.
as §4
The test system of data set [9] is HL-60-BCRP. In words: Alamar Blue cell viability assay.
Procedure: as §1, §2, §3, §4
Data set [10] deals with primary CML cells (BCR-ABL-positive). In words: Apoptosis in ex vivo CML cells, annexin V staining. The data set is classed as cell-based, human. The conditions noted are these: 72 h. The text has this:
This study is the first pre-clinical evaluation of combretastatins in the treatment of chemotherapy naive and patients with acquired imatinib mesylate resistance (refractory or relapsed disease despite adequate dose and duration). Imatinib mesylate is the first line treatment in BCR-ABL-positive CML chemotherapy. BCR-ABL, a constitutively active protein tyrosine kinase is a product of the Philadelphia chromosome (Ph) translocation t(9;22) and plays a central role in the pathogenesis of CML. […] All cells were treated with a clinically achievable concentration of imatinib mesylate (indicated as STI in FIG. 3) [250 nM]. […] The percentage apoptosis was determined by flow cytometric analysis of annexin-V stained cells.
The percentage of apoptosis in ex-vivo CML cells was determined by annexin V staining. […] Cells were collected by centrifugation at 400×g for 5 min and resuspended in anti-CD-45 diluted 1:50 in RPMI medium. Following a 10 min incubation in the dark at room temperature, cells were centrifuged and washed in Annexin binding buffer (Biosource, Nivelles, Belgium). Cells were again centrifuged and resuspended in Annexin-V-FITC (IQ products, Netherlands) diluted in Annexin binding buffer (1:50). Samples were next incubated in the dark on ice for 15 min. Annexin binding buffer (1 ml) was added to each sample. Samples were collected by centrifugation and resuspended in 0.5 ml of Annexin binding buffer. Cells were read immediately by flow cytometry and analysed by Cellquest software. CML cells were selected and gated based on their low to medium side scatter and low CD45 expression.

Data set [11] concerns A2780-ADR (PGP). The data set can be described thus: Alamar Blue cell viability assay.
Procedure: as §1, §2, §3, §4
Data set [12] concerns HL-60 parental. The data set can be described thus: Alamar Blue cell viability assay. The data set is classed as cell-based. The following applies: Homo sapiens, 72 h.
Procedure: as §2, §5, §4
Data set [13] in a line: In vitro stability in plasma. The data set is classed as in vitro ADME. The conditions noted are these: human plasma.
Setting [14] is: MCF7, 72 h, antiproliferative activity, MTT, 72 h, read-out: IC50 (μM) MCF-7 cell line.

Consider three compounds from patent publication US20120309734A1, “COMBRETASTATIN DERIVATIVES AND USES THEREFOR” (priority 2009, published 2012).

Where two headings read alike, the source gives them in different places.

T1 sequence (P08183 whole entry): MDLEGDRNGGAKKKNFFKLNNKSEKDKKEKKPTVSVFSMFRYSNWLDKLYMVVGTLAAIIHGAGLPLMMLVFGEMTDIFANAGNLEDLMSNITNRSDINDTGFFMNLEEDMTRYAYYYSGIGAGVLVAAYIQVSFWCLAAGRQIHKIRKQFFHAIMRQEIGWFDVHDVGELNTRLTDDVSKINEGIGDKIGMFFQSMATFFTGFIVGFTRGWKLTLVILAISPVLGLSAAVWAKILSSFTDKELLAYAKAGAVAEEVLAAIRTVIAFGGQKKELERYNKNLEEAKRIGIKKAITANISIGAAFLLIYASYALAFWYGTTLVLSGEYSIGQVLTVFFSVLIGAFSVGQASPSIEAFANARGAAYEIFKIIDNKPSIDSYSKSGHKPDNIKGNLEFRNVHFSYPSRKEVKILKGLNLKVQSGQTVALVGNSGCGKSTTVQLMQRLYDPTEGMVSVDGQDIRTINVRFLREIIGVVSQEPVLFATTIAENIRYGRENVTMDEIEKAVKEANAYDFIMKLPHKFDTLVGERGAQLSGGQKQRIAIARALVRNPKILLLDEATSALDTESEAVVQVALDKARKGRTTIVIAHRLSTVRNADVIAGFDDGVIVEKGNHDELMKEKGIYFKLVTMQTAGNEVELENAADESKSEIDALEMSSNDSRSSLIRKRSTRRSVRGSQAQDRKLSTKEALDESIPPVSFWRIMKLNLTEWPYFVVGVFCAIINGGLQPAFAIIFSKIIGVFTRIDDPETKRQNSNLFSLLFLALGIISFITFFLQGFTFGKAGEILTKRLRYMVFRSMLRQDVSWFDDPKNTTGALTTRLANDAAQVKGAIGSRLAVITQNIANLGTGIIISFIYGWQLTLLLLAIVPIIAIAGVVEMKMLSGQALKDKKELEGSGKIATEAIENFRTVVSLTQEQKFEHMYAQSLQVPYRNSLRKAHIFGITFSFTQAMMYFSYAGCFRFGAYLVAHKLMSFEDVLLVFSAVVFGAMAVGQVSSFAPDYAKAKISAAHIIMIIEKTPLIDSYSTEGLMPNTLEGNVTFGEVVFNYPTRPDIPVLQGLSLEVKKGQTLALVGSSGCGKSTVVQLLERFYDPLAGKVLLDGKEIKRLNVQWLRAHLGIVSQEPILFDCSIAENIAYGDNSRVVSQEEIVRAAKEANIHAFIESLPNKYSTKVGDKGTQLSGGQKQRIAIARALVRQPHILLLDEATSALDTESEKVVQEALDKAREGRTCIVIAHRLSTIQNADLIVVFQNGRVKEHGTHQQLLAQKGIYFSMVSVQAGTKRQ

As for `C=CC1C(=O)N(c2cc(OC)c(OC)c(OC)c2)C1c1ccc(OC)c(O)c1` (stereo not shown) [Compound 2, 4-(3-Hydroxy-4-methoxy-phenyl)-1-(3,4,5-trimethoxy-phenyl)-3-vinyl-azetidin-2-one], the IC50 in data set [1] (setting [14]) is 0.0014 µM; in data set [1] (MCF7, MTT cell viability assay, read-out: Inhibition of cell viability (IC50 value, nM) MCF-7), 0.0008 to 0.0031 µM; in data set [3], 26.6 nM; in [5], 17.1 nM. The “Percent viability of normal mammary epithelial cells compared to control” value in data set [2] is on record as 92.3%; in [4] (1 nM), 93.1%; in data set [4] (100 nM) it was 74.4%; in data set [4] (1 μM), 73.0%; in data set [4] (10 μM), 73.8%. Moreover, the “effects on normal mammary epithelial cells” value in [2] is reported as “minimal effects”.
With `COc1ccc(/C=C\c2cc(OC)c(OC)c(OC)c2)cc1O` [CA-4, combretastatin A-4, reference compound], the “substrate for the p-glycoprotein” value in data set [6] was “poor substrates for the p-glycoprotein”. Further, the 50% inhibitory concentration (IC50) turned out to be 3.3 nM in data set [7] (Homo sapiens, HL60/MDR, 72 h); 7.5 nM in data set [8]; 3.8 nM in data set [3]; 3.5 nM in [9] (Homo sapiens, 72 h); 6.8 nM in [11] (A2780 ADR, 72 h); 4.5 nM in [12]. In addition, the IC50 in data set [5] worked out at 4.1 nM. Besides, the results for the RF in data set [7] (IC50 HL-60-MDR(PGP) / IC50 HL-60 parental), in [9] (IC50 HL-60-BCRP / IC50 HL-60 parental) and in data set [11] (IC50 A2780-ADR (PGP) / IC50 A2780-parental) were 0.73, 0.8 and 0.9, respectively. In addition, the “Percent viability of normal mammary epithelial cells compared to control” value in [2] came out at 92%; in data set [4] (1 nM), 98%; in data set [4] (100 nM), 74.8%; in [4] (1 μM) it was 74.7%; in [4] (10 μM), 75.0%. The “effects on normal mammary epithelial cells” value in data set [2] was “minimal effects”. In [10] (250 nM each, patient samples), the “apoptosis induction compared with imatinib mesylate” value was “more effective inducers of apoptosis than imatinib mesylate”. Further, the “apoptosis in primary CML cells” value in [10] (250 nM, chemotherapy naïve (4 samples) and imatinib mesylate resistant (2 samples)) is recorded as “induced apoptosis”.
Take `COc1ccc(C2C(Oc3ccccc3)C(=O)N2c2cc(OC)c(OC)c(OC)c2)cc1O` (stereo not shown) [Compound 1, 4-(3-Hydroxy-4-methoxy-phenyl)-3-phenoxy-1-(3,4,5-trimethoxy-phenyl)-azetidin-2-one]: in data set [1] (setting [14]), the IC50 was found to be 0.038 µM. This compound also gave a half-life in data set [13] of 35 h.

Broadly, the IC50 is the concentration at which inhibition is half-maximal. As a reminder, the half-life is the time needed for the level to fall by half in the phase considered. Read a low half-life as fast loss.
